Results published in ChEMBL document CHEMBL3991601, “The target landscape of clinical kinase drugs” (Science, 2017).
pKd: −log10 of the molar value. Calls of active or inactive are those of the source.

What was measured:
[1] = molecular target: Cyclin-dependent kinase 4 (Homo sapiens, UniProt P11802)
[2] = molecular target: T1, Glycogen phosphorylase, brain form (Homo sapiens, UniProt P11216)
T1 sequence (P11216 whole entry): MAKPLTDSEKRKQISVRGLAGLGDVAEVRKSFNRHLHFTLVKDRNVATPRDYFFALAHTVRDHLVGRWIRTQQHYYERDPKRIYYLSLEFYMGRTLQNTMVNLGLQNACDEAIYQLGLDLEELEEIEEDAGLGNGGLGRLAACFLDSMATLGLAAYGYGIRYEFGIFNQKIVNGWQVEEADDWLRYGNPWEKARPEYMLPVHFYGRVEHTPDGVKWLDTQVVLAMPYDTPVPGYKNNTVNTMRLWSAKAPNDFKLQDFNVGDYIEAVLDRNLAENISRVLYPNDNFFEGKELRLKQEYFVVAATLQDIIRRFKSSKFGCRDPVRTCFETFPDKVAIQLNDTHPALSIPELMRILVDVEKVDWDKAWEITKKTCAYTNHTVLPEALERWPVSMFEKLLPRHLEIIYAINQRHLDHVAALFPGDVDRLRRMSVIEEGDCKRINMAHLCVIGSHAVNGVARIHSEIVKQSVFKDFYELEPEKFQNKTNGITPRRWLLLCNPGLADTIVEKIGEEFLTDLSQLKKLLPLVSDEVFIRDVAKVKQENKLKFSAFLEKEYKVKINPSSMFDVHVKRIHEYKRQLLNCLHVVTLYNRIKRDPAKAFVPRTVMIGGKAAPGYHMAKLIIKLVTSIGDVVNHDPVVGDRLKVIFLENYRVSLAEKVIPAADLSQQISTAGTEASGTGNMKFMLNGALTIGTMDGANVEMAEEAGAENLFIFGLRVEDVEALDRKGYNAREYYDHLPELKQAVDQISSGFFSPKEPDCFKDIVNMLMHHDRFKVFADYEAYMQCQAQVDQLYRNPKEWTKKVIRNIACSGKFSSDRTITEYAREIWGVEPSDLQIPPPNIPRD

[3] = molecular target: Serine/threonine-protein kinase MRCK alpha (Homo sapiens, UniProt Q5VT25)
[4] = molecular target: T2, Long-chain-fatty-acid--CoA ligase 5 (Homo sapiens, UniProt Q9ULC5)
T2 sequence (Q9ULC5 whole entry): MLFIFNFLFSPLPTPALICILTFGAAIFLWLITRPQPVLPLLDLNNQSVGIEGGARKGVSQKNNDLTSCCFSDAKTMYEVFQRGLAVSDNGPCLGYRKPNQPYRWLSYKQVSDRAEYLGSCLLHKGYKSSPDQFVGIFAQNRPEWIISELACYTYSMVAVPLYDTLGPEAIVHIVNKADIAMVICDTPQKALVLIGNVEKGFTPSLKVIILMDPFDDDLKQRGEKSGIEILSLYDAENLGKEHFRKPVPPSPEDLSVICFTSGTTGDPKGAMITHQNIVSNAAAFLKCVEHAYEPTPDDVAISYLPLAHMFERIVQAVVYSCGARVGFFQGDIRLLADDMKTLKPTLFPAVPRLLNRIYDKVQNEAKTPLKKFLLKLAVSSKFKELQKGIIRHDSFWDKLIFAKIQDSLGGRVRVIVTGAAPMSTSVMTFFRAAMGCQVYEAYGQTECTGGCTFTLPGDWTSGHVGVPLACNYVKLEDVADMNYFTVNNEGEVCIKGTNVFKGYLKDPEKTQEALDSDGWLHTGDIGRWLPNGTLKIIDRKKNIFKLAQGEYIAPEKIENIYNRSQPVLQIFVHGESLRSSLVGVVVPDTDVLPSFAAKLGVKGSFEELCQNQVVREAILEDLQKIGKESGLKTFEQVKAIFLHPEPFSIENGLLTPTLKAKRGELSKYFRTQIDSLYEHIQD

[5] = molecular target: Aurora kinase B (Homo sapiens, UniProt Q96GD4)
[6] = molecular target: MAP kinase-activated protein kinase 2 (Homo sapiens, UniProt P49137)
[7] = molecular target: T3, Delta(24)-sterol reductase (Homo sapiens, UniProt Q15392)
T3 sequence (Q15392 whole entry): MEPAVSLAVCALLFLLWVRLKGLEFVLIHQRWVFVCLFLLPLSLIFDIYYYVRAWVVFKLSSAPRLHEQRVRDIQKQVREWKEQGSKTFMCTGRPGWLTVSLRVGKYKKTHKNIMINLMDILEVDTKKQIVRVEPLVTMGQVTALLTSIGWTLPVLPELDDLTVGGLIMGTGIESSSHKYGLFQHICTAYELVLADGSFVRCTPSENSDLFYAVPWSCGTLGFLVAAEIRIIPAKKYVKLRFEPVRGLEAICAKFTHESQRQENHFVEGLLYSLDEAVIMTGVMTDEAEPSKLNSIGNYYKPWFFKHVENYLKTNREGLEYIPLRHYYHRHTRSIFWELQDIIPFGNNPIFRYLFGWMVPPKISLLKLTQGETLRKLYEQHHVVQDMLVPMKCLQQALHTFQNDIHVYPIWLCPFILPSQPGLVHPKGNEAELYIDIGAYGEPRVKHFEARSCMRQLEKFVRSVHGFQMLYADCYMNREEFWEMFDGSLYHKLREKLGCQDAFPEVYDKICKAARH

[8] = molecular target: Dual specificity protein kinase CLK1 (Homo sapiens, UniProt P49759)
[9] = molecular target: Mitogen-activated protein kinase 7 (Homo sapiens, UniProt Q13164)
Note: in the data inactive means no Kd found up to 30 µM.

Sequence of Serine/threonine-protein kinase MRCK alpha (Q5VT25 whole entry): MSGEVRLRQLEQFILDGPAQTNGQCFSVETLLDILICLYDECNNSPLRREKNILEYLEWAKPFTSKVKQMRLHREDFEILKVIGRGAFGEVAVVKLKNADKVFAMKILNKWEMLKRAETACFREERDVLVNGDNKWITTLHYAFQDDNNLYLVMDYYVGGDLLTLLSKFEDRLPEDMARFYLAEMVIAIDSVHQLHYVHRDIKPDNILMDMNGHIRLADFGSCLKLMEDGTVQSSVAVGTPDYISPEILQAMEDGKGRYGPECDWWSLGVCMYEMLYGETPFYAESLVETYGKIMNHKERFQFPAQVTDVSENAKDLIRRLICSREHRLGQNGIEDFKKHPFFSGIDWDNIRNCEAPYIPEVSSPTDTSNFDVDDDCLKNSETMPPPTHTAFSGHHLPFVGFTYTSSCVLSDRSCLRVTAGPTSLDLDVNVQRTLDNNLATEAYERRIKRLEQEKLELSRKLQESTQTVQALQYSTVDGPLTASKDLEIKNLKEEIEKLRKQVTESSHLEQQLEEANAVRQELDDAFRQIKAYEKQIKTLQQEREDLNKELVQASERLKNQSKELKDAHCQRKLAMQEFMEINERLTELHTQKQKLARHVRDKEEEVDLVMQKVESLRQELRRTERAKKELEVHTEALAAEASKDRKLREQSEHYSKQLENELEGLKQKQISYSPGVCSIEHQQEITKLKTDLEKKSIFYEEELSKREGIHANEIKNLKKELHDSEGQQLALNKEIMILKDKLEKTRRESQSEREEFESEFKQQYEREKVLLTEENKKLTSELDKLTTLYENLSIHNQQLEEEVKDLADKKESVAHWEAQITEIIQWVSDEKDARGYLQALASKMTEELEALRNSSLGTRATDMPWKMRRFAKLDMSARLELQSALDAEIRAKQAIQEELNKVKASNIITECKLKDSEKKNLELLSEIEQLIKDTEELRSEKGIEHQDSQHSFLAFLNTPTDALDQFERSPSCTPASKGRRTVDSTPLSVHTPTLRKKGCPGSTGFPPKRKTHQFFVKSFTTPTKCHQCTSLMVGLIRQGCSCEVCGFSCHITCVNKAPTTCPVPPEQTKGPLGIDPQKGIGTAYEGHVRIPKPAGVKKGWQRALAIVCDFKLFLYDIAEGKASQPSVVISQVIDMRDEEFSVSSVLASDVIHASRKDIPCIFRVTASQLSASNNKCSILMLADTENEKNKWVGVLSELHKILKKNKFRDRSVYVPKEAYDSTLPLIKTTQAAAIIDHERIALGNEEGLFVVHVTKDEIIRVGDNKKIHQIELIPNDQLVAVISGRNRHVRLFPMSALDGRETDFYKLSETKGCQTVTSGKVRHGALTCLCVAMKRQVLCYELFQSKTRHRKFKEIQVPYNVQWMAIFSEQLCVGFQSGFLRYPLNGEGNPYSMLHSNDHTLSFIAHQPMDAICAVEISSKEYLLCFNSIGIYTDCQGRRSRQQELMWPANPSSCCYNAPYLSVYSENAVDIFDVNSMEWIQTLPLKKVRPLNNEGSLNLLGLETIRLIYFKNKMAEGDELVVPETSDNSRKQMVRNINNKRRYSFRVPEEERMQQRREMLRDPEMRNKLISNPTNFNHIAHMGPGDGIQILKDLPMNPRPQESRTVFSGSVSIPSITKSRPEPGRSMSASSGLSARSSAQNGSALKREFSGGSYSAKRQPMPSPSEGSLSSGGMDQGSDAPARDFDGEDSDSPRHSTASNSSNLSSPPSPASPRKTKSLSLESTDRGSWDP
Sequence of Cyclin-dependent kinase 4 (P11802 whole entry): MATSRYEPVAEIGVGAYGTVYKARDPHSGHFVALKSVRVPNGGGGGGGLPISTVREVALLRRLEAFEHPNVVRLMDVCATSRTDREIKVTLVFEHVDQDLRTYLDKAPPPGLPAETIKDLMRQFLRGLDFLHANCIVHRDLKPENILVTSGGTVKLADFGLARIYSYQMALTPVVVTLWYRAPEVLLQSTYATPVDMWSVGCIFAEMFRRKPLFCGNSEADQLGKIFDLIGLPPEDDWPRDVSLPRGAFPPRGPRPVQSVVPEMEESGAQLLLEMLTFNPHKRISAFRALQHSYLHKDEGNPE
Sequence of Aurora kinase B (Q96GD4 whole entry): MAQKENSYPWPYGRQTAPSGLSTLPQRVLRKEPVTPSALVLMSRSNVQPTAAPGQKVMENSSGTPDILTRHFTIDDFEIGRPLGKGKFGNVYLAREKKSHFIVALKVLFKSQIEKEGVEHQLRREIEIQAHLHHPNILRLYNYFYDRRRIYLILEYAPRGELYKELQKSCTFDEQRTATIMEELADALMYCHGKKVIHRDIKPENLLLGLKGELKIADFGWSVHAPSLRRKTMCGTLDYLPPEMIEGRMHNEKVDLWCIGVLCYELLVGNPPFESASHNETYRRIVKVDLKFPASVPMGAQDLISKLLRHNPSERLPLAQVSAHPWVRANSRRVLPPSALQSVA
Sequence of MAP kinase-activated protein kinase 2 (P49137 whole entry): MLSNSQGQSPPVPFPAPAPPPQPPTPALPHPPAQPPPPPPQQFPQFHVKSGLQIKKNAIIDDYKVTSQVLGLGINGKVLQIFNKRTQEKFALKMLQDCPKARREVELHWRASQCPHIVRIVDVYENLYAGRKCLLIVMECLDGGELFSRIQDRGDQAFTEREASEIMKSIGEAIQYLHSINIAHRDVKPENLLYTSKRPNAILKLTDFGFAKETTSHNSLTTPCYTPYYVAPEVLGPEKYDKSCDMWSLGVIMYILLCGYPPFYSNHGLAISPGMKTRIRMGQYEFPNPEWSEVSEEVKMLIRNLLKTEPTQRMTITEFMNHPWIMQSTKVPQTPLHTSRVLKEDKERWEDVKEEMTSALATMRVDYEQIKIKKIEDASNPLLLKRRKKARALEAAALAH
Sequence of Mitogen-activated protein kinase 7 (Q13164 whole entry): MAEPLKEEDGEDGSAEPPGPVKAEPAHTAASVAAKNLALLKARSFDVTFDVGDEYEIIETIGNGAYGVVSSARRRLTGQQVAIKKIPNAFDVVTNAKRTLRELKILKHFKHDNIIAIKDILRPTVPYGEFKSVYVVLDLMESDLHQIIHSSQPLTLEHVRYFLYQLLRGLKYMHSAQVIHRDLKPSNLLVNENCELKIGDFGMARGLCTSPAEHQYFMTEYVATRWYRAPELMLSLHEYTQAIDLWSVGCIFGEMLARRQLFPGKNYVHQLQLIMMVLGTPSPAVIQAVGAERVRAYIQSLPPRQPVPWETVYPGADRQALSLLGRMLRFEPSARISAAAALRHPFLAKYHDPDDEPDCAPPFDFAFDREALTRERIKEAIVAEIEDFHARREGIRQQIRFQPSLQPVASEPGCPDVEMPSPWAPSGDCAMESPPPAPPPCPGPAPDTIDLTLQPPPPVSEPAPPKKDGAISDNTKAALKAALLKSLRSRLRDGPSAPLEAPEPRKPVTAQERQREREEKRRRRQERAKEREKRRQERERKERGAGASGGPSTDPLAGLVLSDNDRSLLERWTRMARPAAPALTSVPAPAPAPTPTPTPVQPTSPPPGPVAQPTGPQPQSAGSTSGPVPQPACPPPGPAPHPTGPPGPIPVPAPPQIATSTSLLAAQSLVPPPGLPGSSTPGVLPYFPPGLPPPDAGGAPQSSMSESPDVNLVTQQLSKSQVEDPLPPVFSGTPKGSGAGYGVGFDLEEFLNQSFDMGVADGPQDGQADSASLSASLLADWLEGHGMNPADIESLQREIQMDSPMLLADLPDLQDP
Sequence of Dual specificity protein kinase CLK1 (P49759 whole entry): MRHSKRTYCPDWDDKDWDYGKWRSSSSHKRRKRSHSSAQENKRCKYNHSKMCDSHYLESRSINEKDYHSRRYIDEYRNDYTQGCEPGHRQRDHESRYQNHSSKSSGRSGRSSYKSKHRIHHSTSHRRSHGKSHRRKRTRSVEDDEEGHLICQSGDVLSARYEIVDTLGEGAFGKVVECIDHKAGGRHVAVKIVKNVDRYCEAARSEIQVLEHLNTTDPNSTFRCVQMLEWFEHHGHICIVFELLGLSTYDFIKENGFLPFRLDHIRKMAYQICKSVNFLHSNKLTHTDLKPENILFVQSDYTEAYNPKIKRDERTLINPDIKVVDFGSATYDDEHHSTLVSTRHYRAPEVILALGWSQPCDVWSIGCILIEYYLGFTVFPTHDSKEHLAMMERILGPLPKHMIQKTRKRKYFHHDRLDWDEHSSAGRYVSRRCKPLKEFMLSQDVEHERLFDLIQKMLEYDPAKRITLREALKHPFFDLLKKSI

Compound	Kd [1]	Kd [2]	Kd [3]	Kd [4]	Kd [5]	Kd [6]	Kd [7]	Kd [8]	Kd [9]	pKd [4]	pKd [8]
Cn1cc(-c2[nH]c3cc(NC(=O)[C@H](N)C4CCCCC4)cc4c3c2C=NNC4=O)cn1	> 30 µM (inactive)	> 30 µM (inactive)	> 30 µM (inactive)	> 30 µM (inactive)	0.12 µM (active)	> 30 µM (inactive)	> 30 µM (inactive)	> 30 µM (inactive)	> 30 µM (inactive)		
Cc1c(NC(=O)OC[C@@H]2COCCN2)cn2ncnc(Nc3ccc4c(cnn4Cc4cccc(F)c4)c3)c12 [AC-480]	> 30 µM (inactive)	> 30 µM (inactive)	> 30 µM (inactive)	> 30 µM (inactive)	> 30 µM (inactive)	> 30 µM (inactive)	> 30 µM (inactive)	> 30 µM (inactive)	> 30 µM (inactive)		
COc1ccc2c(OCc3nnc4ccc(-c5ccccc5)nn34)ccnc2c1 [AMG-208]	> 30 µM (inactive)	> 30 µM (inactive)	> 30 µM (inactive)	> 30 µM (inactive)	> 30 µM (inactive)	> 30 µM (inactive)	> 30 µM (inactive)	> 30 µM (inactive)	> 30 µM (inactive)		
S=C(NCc1ccc2c(c1)OCO2)N1CCN(c2ncnc3c2oc2ccccc23)CC1 [AMUVATINIB]	> 30 µM (inactive)	> 30 µM (inactive)	> 30 µM (inactive)	> 30 µM (inactive)	> 30 µM (inactive)	> 30 µM (inactive)	> 30 µM (inactive)	> 30 µM (inactive)	> 30 µM (inactive)		
NC[C@@](O)(c1ccc(Cl)cc1)c1ccc(-c2cn[nH]c2)cc1 [AT-13148]	> 30 µM (inactive)	> 30 µM (inactive)	> 30 µM (inactive)	> 30 µM (inactive)	> 30 µM (inactive)	> 30 µM (inactive)	> 30 µM (inactive)				
CCN(CCCOc1ccc2c(Nc3cc(CC(=O)Nc4cccc(F)c4)n[nH]3)ncnc2c1)CCOP(=O)(O)O [BARASERTIB]	> 30 µM (inactive)	> 30 µM (inactive)	> 30 µM (inactive)	> 30 µM (inactive)		> 30 µM (inactive)	> 30 µM (inactive)	> 30 µM (inactive)	> 30 µM (inactive)		
COc1cccc(Nc2ncnn3ccc(CN4CC[C@@H](N)[C@H](O)C4)c23)c1 [BMS-690514]	> 30 µM (inactive)	> 30 µM (inactive)	> 30 µM (inactive)	> 30 µM (inactive)	> 30 µM (inactive)	> 30 µM (inactive)	> 30 µM (inactive)	> 30 µM (inactive)	> 30 µM (inactive)		
CCOc1ccn(-c2ccc(F)cc2)c(=O)c1C(=O)Nc1ccc(Oc2ccnc(N)c2Cl)c(F)c1 [BMS-777607]	> 30 µM (inactive)		> 30 µM (inactive)	> 30 µM (inactive)	1.07 µM (active)	> 30 µM (inactive)	> 30 µM (inactive)		> 30 µM (inactive)		
COc1cc2nccc(Oc3ccc(NC(=O)C4(C(=O)Nc5ccc(F)cc5)CC4)cc3)c2cc1OC [CABOZANTINIB]	> 30 µM (inactive)	> 30 µM (inactive)	> 30 µM (inactive)	> 30 µM (inactive)		> 30 µM (inactive)	> 30 µM (inactive)	> 30 µM (inactive)	> 30 µM (inactive)		
Cn1c(=O)n(-c2ccc(C(C)(C)C#N)cc2)c2c3cc(-c4cnc5ccccc5c4)ccc3ncc21 [DACTOLISIB]	> 30 µM (inactive)	> 30 µM (inactive)	> 30 µM (inactive)	> 30 µM (inactive)		> 30 µM (inactive)	> 30 µM (inactive)	> 30 µM (inactive)	> 30 µM (inactive)		
COc1cc(Nc2ncc(F)c(Nc3ccc4c(n3)N(COP(=O)(O)O)C(=O)C(C)(C)O4)n2)cc(OC)c1OC [FOSTAMATINIB]	> 30 µM (inactive)	> 30 µM (inactive)	> 30 µM (inactive)	> 30 µM (inactive)		> 30 µM (inactive)	> 30 µM (inactive)	> 30 µM (inactive)	> 30 µM (inactive)		
CCc1nc(C(N)=O)c(Nc2ccc(N3CCC(N4CCN(C)CC4)CC3)c(OC)c2)nc1NC1CCOCC1 [GILTERITINIB]	1.95 µM (active)	> 30 µM (inactive)	> 30 µM (inactive)		> 30 µM (inactive)	> 30 µM (inactive)	0.432 µM (active)		> 30 µM (inactive)	6.68	
O=S(=O)(c1cccc2c(O)nccc12)N1CCCNCC1 [HYDROXYFASUDIL]	> 30 µM (inactive)	> 30 µM (inactive)	> 30 µM (inactive)	> 30 µM (inactive)	> 30 µM (inactive)		> 30 µM (inactive)	24.1 µM (active)	> 30 µM (inactive)		
COc1cc2ncnc3c2cc1OCCCCCN(C)Cc1ccc(Br)cc1N3 [JNJ-26483327]	> 30 µM (inactive)	> 30 µM (inactive)	> 30 µM (inactive)	> 30 µM (inactive)	> 30 µM (inactive)	> 30 µM (inactive)		> 30 µM (inactive)	> 30 µM (inactive)		
N#CCNC(=O)c1ccc(-c2ccnc(Nc3ccc(N4CCOCC4)cc3)n2)cc1 [MOMELOTINIB]	> 30 µM (inactive)	> 30 µM (inactive)		> 30 µM (inactive)	> 30 µM (inactive)	> 30 µM (inactive)	> 30 µM (inactive)		> 30 µM (inactive)		6.04
CN(c1ncccc1CNc1nc(Nc2ccc3c(c2)CC(=O)N3)ncc1C(F)(F)F)S(C)(=O)=O [PF-00562271]	> 30 µM (inactive)	> 30 µM (inactive)		> 30 µM (inactive)	1.04 µM (active)		> 30 µM (inactive)	0.363 µM (active)			
COc1cc(F)c(F)c(Nc2ccc(I)cc2F)c1NS(=O)(=O)C1(C[C@H](O)CO)CC1 [REFAMETINIB]	> 30 µM (inactive)	> 30 µM (inactive)	> 30 µM (inactive)	> 30 µM (inactive)	> 30 µM (inactive)	> 30 µM (inactive)		> 30 µM (inactive)	> 30 µM (inactive)		
CC(C)(O)CC(=O)NCCn1ccc2ncnc(Nc3ccc(Oc4cccc(C(F)(F)F)c4)c(Cl)c3)c21 [TAK-285]	> 30 µM (inactive)	> 30 µM (inactive)	> 30 µM (inactive)	> 30 µM (inactive)	> 30 µM (inactive)	> 30 µM (inactive)	> 30 µM (inactive)	> 30 µM (inactive)			
CNC(=O)c1cc(COc2nnc(Nc3ccc(Cl)cc3)c3ccoc23)ccn1 [TELATINIB]	> 30 µM (inactive)	> 30 µM (inactive)		> 30 µM (inactive)	> 30 µM (inactive)	> 30 µM (inactive)	> 30 µM (inactive)	> 30 µM (inactive)	> 30 µM (inactive)		
